Values of other authors, collected in patent US20100247673A1, “Thyroid protection in sickle cell anemia treatment” (priority 2009, published 2010).

System: erythrocytes
Settings: about 4 mols incorporated per mol of hemoglobin tetramer

## N#C[O-].[K+] [potassium cyanate]
  erythrocytes prevented from sickling: up to 80%
